Test results published in US20250145715A1, “B7-H3 TARGETING FUSION PROTEINS AND METHODS OF USE THEREOF” (GT Biopharma, Inc., priority 2021, published 2025).

Columns and labels:
Format in all cases: cell-based, human
[1] = tested on: OVCAR8 ovarian cancer cells; experiment: NK cell CD107a / IFNγ flow cytometry against OVCAR8; conditions: 30 nM, E:T 2:1, 4 hrs; vs no treatment and rhIL-15 alone
Method: FIG. 29A is a graph illustrating pooled proportion of NK cells from healthy donors expressing CD107a+ (degranulation) against OVCAR8 and MA148 targets. FIG. 29B is a graph illustrating pooled proportion of NK cells from healthy donors expressing IFNγ cytokine production against OVCAR8 and MA148 targets.
(§1) Healthy donor or ovarian cancer PBMC cells were incubated with ovarian tumor targets at 2:1 E:T ratio for 4 hrs with 30 nM TriKE or control condition. FIG. 30A is a graph illustrating pooled proportion of NK cells from healthy donors expressing CD107a+ (degranulation) against OVCAR8 targets (N=8). FIG. 30B is a graph illustrating pooled proportion of NK cells from healthy donors expressing IFNγ cytokine production against OVCAR8 targets (N=8). FIG. 30C is a graph illustrating pooled proportion of NK cells from healthy donors expressing CD107a+ (degranulation) against OVCAR3 targets (N=4). FIG. 30D is a graph illustrating pooled proportion of NK cells from healthy donors expressing IFNγ cytokine production against OVCAR3 targets (N=4). FIG. 30E is a graph illustrating pooled proportion of NK cells from healthy donors expressing CD107a+ (degranulation) against OVCAR5 targets (N=7). FIG. 30F is a graph illustrating pooled proportion of NK cells from healthy donors expressing IFNγ cytokine production against OVCAR5 targets (N=7). […] FIG. 30I is a graph illustrating that tumor killing was evaluated using IncuCyte imaging assay. […] The percentage of Live (Nuclight Red+Caspase 3/7−) tumor cells was quantified over a 48-h period and normalized to tumor alone. Readings were obtained every 15 min (representative of four separate experiments). * p<0.05, ** p<0.01, *** p<0.001, and **** p<0.0001.
(§2) ADCC was measured in a flow cytometry assay by evaluating degranulation via CD107a (lysosomal-associated membrane protein LAMP-1) and intracellular IFNγ production. […] Samples were washed and evaluated in an LSRII flow cytometer (BD Biosciences, San Jose, CA, USA).
(§3) The ability of cam1615B7-H3 TriKE to mediate NK cell activity against ovarian cancer cells was evaluated. […]

[2] = tested on: PC3 prostate cancer cells; experiment: NK cell CD107a / IFNγ flow cytometry against PC3; conditions: normal donor and prostate cancer patient NK cells, vs controls
Source text: FIG. 15A is a graph showing pooled analysis of proportion of NK cells from healthy donors or prostate cancer patients expressing CD107a+ (top) or IFNγ (bottom) against C4-2 targets (N=9 for healthy donors, N=3 for patients). FIG. 15B is a graph showing pooled analysis of proportion of NK cells from healthy donors or prostate cancer patients expressing CD107a+ (top) or IFNγ (bottom) against DU145 targets (N=9 for healthy donors, N=3 for patients). FIG. 15C is a graph showing pooled analysis of proportion of NK cells from healthy donors or prostate cancer patients expressing CD107a+ (top) or IFNγ (bottom) against LNCaP targets (N=9 for healthy donors, N=3 for patients). FIG. 15D is a graph showing pooled analysis of proportion of NK cells from healthy donors or prostate cancer patients expressing CD107a+ (top) or IFNγ (bottom) against PC3 targets (N=9 for healthy donors, N=3 for patients). * p<0.05, ** p<0.01, *** p<0.001, and **** p<0.0001.
ADCC was measured in a flow cytometry assay by evaluating degranulation via CD107a (lysosomal-associated membrane protein LAMP-1) and intracellular IFNγ production. Upon thawing, normal donor and patient-derived PBMCs or ascites cells were rested overnight (37° C., 5% CO2) in RPMI 1640 media supplemented with 10% fetal calf serum (RPMI-10). […] Samples were washed and evaluated in an LSRII flow cytometer (BD Biosciences, San Jose, CA, USA). […]

[3] = tested on: OVCAR3 ovarian cancer cells; experiment: NK cell CD107a / IFNγ flow cytometry against OVCAR3; conditions: 30 nM, E:T 2:1, 4 hrs; vs no treatment and rhIL-15 alone
Method: as §1, with “(N=4).” for “(N=4). FIG. 30D is a graph illustrating pooled proportion of NK cells from healthy donors expressing IFNγ cytokine production against OVCAR3 targets (N=4). FIG. 30E is a graph illustrating pooled proportion of NK cells from healthy donors expressing CD107a+ (degranulation) against OVCAR5 targets (N=7). FIG. 30F is a graph illustrating pooled proportion of NK cells from healthy donors expressing IFNγ cytokine production against OVCAR5 targets (N=7).”
as §2, §3

[4] = tested on: OVCAR5 ovarian cancer cells; experiment: NK cell CD107a / IFNγ flow cytometry against OVCAR5; conditions: 30 nM, E:T 2:1, 4 hrs; vs no treatment and rhIL-15 alone
Method: as §1, with “(N=4).” for “(N=4). FIG. 30D is a graph illustrating pooled proportion of NK cells from healthy donors expressing IFNγ cytokine production against OVCAR3 targets (N=4). FIG. 30E is a graph illustrating pooled proportion of NK cells from healthy donors expressing CD107a+ (degranulation) against OVCAR5 targets (N=7). FIG. 30F is a graph illustrating pooled proportion of NK cells from healthy donors expressing IFNγ cytokine production against OVCAR5 targets (N=7).”
as §2, §3

“cam1615B7-H3: second-generation TriKE: humanized camelid anti-CD16 VHH, human wild-type IL-15, anti-B7-H3 mAb 376.96 scFv; SEQ ID NO:1” was tested, and the “NK cell degranulation against OVCAR8” value [1] was “robust”, the “NK cell intracellular IFNγ production against OVCAR8” value [1] was “robust” and the “NK cell IFNγ production against PC3” value [2] was “enhanced”. For the same substance, the “NK cell degranulation (CD107a) against PC3” value [2] was “enhanced”, the “NK cell degranulation against OVCAR3” value [3] was “robust” and the “NK cell intracellular IFNγ production against OVCAR3” value [3] was “robust”. For the same substance, the “NK cell degranulation against OVCAR5” value [4] was “robust” and the “NK cell intracellular IFNγ production against OVCAR5” value [4] was “robust”.
